Here are results for two molecules from US20210283116A1, “METHODS OF TREATING ACUTE KIDNEY INJURY” (Mitobridge, Inc., priority 2016, published 2021).

Each structure is given as a SMILES string.

Assay [1] has as its system rat model of acute kidney injury (ischemia reperfusion injury). The assay can be described thus: Ischemia reperfusion injury rat model of acute kidney injury, Compound A intravenously. The class given is in vivo, Sprague-Dawley male rats. How it is done:
Animals, surgery and dosing: Sprague-Dawley male rats approximately 280-300 g, with ad libitum access to standard feed and water were used in these experiments. Rats (n=8/group) were anesthetized with isoflurane and placed ventrally on a temperature controlled heated surgical platform. A skin incision was made on the dorsal surface, exposing both kidneys through flank incisions. Vascular clips were applied to both renal pedicles and occlusion lasted 45 minutes. After 45 min, the clips were removed, kidneys were monitored for successful reperfusion, and surgical sites were then sutured. The sham group (n=4 rats) was subjected to similar surgical procedures, except that the occluding clamps were not applied. Compound A was formulated as a fresh daily clear solution of the hydrate of the meglumine salt of Compound A (1.5 Molar equivalent of Compound A) in 5% dextrose. Compound A was dosed IV via tail vein at 3 mg/kg, 1 mg/kg or 0.3 mg/kg 4 hours after animals awoke from surgery and sham surgery and IRI control animals were similarly dosed with vehicle.
Blood collection: Twenty-four (24) hours after reperfusion, blood was collected in K2 EDTA tubes by retro-orbital bleeding from all groups under mild isoflurane anesthesia. Plasma was separated by centrifugation at 3000 rpm for 10 minutes at 4° C. Urine collection: all study animal groups were placed in metabolic cages immediately after surgery recovery and urine was collected for 24 or 48 hours. Urine volume was carefully measured and then was centrifuged at 3000 rpm for 10 min at 4° C. to remove sediments. Plasma and urine creatinine were analyzed using a fully automated clinical biochemistry analyzer (Siemens Dimension® Xpand® Plus Integrated Chemistry System). Urinary NGAL was analyzed using a BioPorto ELISA kit. Creatinine clearance was calculated as follows: […]
GraphPad Prism software, Version 6.05 was used for graphing and statistical testing. Creatinine was tested for normal distribution in all groups via a D'Agostino-Pearson omnibus normality test and a Shapiro-Wilk normality test. Statistical significance (p<0.05) is determined by an ordinary One-way ANOVA followed by Dunnett's multiple comparison using the […] as the control group. **p<0.01, ***p<0.001 and ****p<0.0001 vs. IR-Vehicle.

The test system is the same in assay [2]. The assay can be described thus: Ischemia reperfusion injury rat model of acute kidney injury, Compound B orally. The class given is in vivo, Sprague-Dawley male rats. Here is the method: Animals, surgery and dosing: Sprague-Dawley male rats approximately 280-300 g, with ad libitum access to standard feed and water were used in these experiments. Rats (n=8/group) were anesthetized with isoflurane and placed ventrally on a temperature controlled heated surgical platform. A skin incision was made on the dorsal surface, exposing both kidneys through flank incisions. Vascular clips were applied to both renal pedicles and occlusion lasted 45 minutes. After 45 min, the clips were removed, kidneys were monitored for successful reperfusion, and surgical sites were sutured. The sham group (n=4 rats) was subjected to similar surgical procedures, except that the occluding clamps were not applied. Compound B was formulated as a fresh daily suspension in 0.25% sodium carboxymethyl-cellulose, 0.25% Tween-80 in purified water. Compound B was dosed orally at 30 mg/kg 4 hours after animals awoke from surgery and sham surgery and IRI control animals were similarly dosed with vehicle. Blood collection: Twenty-four (24) hours after reperfusion, blood was collected in K2 EDTA tubes by retro-orbital bleeding from all groups under mild isoflurane anesthesia. Plasma was separated by centrifugation at 3000 rpm for 10 minutes at 4° C. Urine collection: all study animal groups were placed in metabolic cages immediately after surgery recovery and urine was collected for 24 hours. Urine volume was carefully measured and then was centrifuged at 3000 rpm for 10 min at 4° C. to remove sediments. Plasma and urine creatinine were analyzed using a fully automated clinical biochemistry analyzer (Siemens Dimension® Xpand® Plus Integrated Chemistry System). Creatinine clearance was calculated as follows: […]
GraphPad Prism software, Version 6.05 was used for graphing and statistical testing. Data was tested for normal distribution in all groups via a D'Agostino-Pearson omnibus normality test and a Shapiro-Wilk normality test. […] Statistical significance is determined by p<0.05 of IRI-vehicle compared to compound treated groups. **p<0.01 and ***p<0.001 vs. IR-Vehicle. […]

As to `Cc1cnc(-c2ccc(C(F)(F)F)nc2)n1Cc1ccccc1OCCC[C@@H](C)CC(=O)O` [Compound A, (R)-3-methyl-6-(2-((5-methyl-2-(6-(trifluoromethyl)pyridin-3-yl)-1H-imidazol-1-yl)methyl)phenoxy)hexanoic acid], the “kidney function (creatinine clearance)” value in assay [1] (0.3 mg/kg, 1 mg/kg or 3 mg/kg IV 4 hours after ischemia, 24 hours after kidney injury, vs. IR-Vehicle) was “improves kidney function”. The plasma creatinine entry in assay [1] (0.3 mg/kg, 1 mg/kg or 3 mg/kg IV 4 hours after ischemia, 24 hours after reperfusion, vs. IR-Vehicle) is on record as “significantly reduces plasma creatinine”. In assay [1] (0.3 mg/kg, 1 mg/kg or 3 mg/kg IV 4 hours after ischemia, 48 hours after kidney injury, vs. IR-Vehicle), the “early kidney injury biomarker NGAL (urinary)” value was “reduces the early kidney injury biomarker NGAL”. In addition, the kidney injury result in assay [1] (dosed IV 4 hours after ischemia, hydrate of meglumine salt in 5% dextrose) is “reduces kidney injury”.
On to `Cc1cc(SCc2nn(-c3ccc(C(F)(F)F)cc3)nc2C)ccc1OCC(=O)O` [Compound B], for which the plasma creatinine result in assay [2] (30 mg/kg orally 4 hours after ischemia, 24 hours after reperfusion, vs. IR-Vehicle) was “reduces plasma creatinine”. Further, the “kidney function (creatinine clearance)” value in assay [2] (30 mg/kg orally 4 hours after ischemia, 24 hours urine collection, vs. IR-Vehicle) was “improves kidney function”. Besides, the kidney injury entry in assay [2] (30 mg/kg orally, dosed 4 hours after ischemia) was “reduces kidney injury”.
